The record followed here is patent US20260207602A1, “EGFR INHIBITORS” (Blueprint Medicines Corporation, priority 2022, published 2026).

One may read the IC50 as the concentration that inhibits the measured activity by half.

In test [1] the target is intracellular phosphorylation of EGFR (Tyr1068) in PC-9 cells (Homo sapiens, UniProt P00533, DEL746-750). The experiment in a line: PC-9 pEGFR AlphaLISA assay. In kind it is cell-based. The note with it: 4 hours incubation, read-out: Phos EGFR PC9 IC50. The gist of the method:
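PC-9 cells (EGFR del746-750) in phenol-free DMEM/10% FBS, adhered overnight, then exposed to 10-point 4-fold compound dilutions for 4 h at 37 °C. Lysates assayed for pEGFR Tyr1068 by AlphaLISA SureFire Ultra; IC50 from percent pEGFR inhibition vs log concentration.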

The target in a further test is T1, EGFR (d746-750) (Homo sapiens, UniProt P00533, DEL746-750).
T1 construct: purchased SignalChem E10-122JG
The experiment in a line: Biochemical EGFR inhibition assay (Caliper mobility shift), EGFR (d746-750). The note with it: biochemical Caliper mobility shift assay, EGFR Exon 19-del enzyme; read-out: Enz EGFR Exon 19-del IC50. In outline: (§1)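 Mobility-shift readout: phosphorylated and unphosphorylated 5-FAM peptide (2.5 µM) separated electrophoretically. Reactions at room temperature (25 °C), 1.0 mM ATP or ATP Km, HEPES pH 7.5 with MgCl2, Brij-35, DTT and 1.0% DMSO; terminated at 10–20% turnover with 35 mM EDTA. Apparent IC50 fitted.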

Another test addresses T2, EGFR L858R (Homo sapiens, UniProt P00533, L858R).
T2 construct: purchased SignalChem E10-122BG
The experiment in a line: Biochemical EGFR inhibition assay (Caliper mobility shift), EGFR L858R. To be noted: biochemical Caliper mobility shift assay, EGFR L858R enzyme; read-out: Enz EGFR L858R IC50. In outline:
as §1

T1 sequence (P00533 with tags, fused parts or gaps DEL746-750 limits assumed): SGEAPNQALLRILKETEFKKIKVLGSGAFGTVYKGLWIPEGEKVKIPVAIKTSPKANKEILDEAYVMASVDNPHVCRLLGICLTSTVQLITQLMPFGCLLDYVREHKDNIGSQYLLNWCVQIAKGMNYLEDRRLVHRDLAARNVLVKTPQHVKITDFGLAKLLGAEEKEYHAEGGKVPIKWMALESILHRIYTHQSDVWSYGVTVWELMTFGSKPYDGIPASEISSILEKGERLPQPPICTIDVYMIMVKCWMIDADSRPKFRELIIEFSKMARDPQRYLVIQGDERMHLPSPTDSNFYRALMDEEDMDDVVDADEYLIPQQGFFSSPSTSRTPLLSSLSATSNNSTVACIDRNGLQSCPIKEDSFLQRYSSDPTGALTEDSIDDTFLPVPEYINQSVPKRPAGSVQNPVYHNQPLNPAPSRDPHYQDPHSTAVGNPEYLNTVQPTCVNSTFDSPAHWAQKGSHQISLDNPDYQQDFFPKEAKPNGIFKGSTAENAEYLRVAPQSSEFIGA
Sequence of intracellular phosphorylation of EGFR (Tyr1068) in PC-9 cells (P00533 with tags, fused parts or gaps DEL746-750): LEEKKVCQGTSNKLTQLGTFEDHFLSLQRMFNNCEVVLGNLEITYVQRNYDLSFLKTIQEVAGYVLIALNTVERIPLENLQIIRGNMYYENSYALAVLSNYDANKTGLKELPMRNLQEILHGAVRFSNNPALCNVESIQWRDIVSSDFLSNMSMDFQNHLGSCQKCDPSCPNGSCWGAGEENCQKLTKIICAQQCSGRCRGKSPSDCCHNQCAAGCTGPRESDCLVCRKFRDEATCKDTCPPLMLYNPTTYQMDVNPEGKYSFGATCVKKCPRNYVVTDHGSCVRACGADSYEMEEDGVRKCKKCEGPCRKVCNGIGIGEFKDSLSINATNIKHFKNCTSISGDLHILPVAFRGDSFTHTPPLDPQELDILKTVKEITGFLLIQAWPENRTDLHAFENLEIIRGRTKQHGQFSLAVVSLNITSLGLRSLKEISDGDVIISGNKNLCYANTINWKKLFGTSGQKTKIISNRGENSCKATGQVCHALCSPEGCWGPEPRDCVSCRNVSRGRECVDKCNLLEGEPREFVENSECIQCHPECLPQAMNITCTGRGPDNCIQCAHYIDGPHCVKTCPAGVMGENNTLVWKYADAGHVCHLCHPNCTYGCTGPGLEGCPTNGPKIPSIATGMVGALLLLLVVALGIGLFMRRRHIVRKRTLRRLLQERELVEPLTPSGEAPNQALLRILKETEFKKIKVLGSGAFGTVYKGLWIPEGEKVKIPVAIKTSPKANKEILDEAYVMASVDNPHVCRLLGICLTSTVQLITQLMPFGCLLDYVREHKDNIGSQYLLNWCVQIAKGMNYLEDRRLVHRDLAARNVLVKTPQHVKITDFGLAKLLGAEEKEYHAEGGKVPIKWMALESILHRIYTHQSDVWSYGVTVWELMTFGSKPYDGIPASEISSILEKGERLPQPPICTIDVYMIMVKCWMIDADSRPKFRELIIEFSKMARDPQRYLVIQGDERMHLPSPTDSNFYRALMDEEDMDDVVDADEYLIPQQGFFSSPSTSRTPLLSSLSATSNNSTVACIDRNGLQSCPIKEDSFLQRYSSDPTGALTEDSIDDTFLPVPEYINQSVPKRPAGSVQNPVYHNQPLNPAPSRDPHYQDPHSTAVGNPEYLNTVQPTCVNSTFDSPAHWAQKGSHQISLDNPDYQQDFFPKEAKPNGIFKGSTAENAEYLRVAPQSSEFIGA
T2 sequence (P00533 25-1210 L858R): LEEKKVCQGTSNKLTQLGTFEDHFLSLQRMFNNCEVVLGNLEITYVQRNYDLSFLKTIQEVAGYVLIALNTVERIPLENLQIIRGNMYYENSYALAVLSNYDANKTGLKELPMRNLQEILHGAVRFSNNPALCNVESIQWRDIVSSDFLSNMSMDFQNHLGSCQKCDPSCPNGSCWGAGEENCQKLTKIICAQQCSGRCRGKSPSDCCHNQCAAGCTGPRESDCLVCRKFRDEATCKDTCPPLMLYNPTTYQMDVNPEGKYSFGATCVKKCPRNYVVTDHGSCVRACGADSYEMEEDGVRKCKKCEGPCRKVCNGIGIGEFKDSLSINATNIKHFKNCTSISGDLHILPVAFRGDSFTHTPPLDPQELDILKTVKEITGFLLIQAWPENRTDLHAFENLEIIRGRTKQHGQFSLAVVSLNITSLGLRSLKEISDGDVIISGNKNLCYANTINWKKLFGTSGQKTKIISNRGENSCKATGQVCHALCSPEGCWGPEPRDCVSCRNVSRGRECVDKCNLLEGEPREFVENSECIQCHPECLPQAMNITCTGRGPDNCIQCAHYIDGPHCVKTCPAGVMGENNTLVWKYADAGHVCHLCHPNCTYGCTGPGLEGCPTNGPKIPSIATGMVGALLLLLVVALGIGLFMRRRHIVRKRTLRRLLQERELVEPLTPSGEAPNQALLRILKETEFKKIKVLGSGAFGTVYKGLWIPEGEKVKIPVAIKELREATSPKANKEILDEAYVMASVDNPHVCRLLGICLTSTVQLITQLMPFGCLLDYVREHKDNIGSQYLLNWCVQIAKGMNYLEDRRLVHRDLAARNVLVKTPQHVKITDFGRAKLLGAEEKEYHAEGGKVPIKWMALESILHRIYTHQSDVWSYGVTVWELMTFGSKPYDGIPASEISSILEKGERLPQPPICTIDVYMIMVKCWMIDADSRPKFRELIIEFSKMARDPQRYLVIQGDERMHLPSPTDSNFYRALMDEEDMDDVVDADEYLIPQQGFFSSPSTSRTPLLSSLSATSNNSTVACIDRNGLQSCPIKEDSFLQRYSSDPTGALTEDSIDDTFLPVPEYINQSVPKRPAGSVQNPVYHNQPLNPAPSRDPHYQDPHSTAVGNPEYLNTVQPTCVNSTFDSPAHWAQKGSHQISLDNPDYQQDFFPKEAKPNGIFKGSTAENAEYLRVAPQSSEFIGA

On to `Cn1cc(-c2cc3ncnc(Nc4ccc5ncsc5c4F)c3cc2OC2CCOCC2)cn1` [Example 262, 7-fluoro-N-(7-(1-methyl-1H-pyrazol-4-yl)-6-((tetrahydro-2H-pyran-4-yl)oxy)quinazolin-4-yl)benzo[d]thiazol-6-amine], for which the IC50 (in test [1]; on EGFR (d746-750); on EGFR L858R) was not above 10 nM each time.

Turning to `Cn1cc(-c2cc(O[C@H]3CCCN(C4COC4)C3)c3c(Nc4ccc5ncsc5c4)ncnc3c2)cn1` [Example 317, (S)-N-(7-(1-methyl-1H-pyrazol-4-yl)-5-((1-(oxetan-3-yl)piperidin-3-yl)oxy)quinazolin-4-yl)benzo[d]thiazol-6-amine], the IC50 (in test [1]; at EGFR (d746-750); on EGFR L858R) was not above 10 nM throughout.

On to `CN1CC[C@@](C)(COc2cc(-c3cnn(C)c3)cc3ncnc(Nc4ccc5ncsc5c4)c23)C1=O` (single isomer, unassigned) [Example 55], for which the IC50 in test [1] was 10.1 to 50 nM; on EGFR (d746-750), not above 10 nM; on EGFR L858R it was not above 10 nM.

Turning to `Cn1cc(-c2cc(OC(C)(C)C(=O)N3CCOCC3)c3c(Nc4ccc5ncsc5c4)ncnc3c2)cn1` [Example 286, 2-((4-(benzo[d]thiazol-6-ylamino)-7-(1-methyl-1H-pyrazol-4-yl)quinazolin-5-yl)oxy)-2-methyl-1-morpholinopropan-1-one], the IC50 in test [1] was 10.1 to 50 nM; at EGFR (d746-750) it was not above 10 nM; at EGFR L858R it was 10.1 to 50 nM.

Consider `C[C@H](Oc1cc(-c2cnn(C)c2)cc2ncnc(Nc3ccc4ncsc4c3)c12)C(F)(F)F` [Example 68, (S)-N-(7-(1-methyl-1H-pyrazol-4-yl)-5-((1,1,1-trifluoropropan-2-yl)oxy)quinazolin-4-yl)benzo[d]thiazol-6-amine], for which the IC50 (in test [1]; on EGFR (d746-750); at EGFR L858R) was not above 10 nM each time.

With `CC[C@H](Oc1cc(-c2cnn(C)c2)cc2ncnc(Nc3ccc4ncsc4c3F)c12)C1CN(C)C1` (single isomer, unassigned) [Example 389], the IC50 was 10.1 to 50 nM in test [1], not above 10 nM at EGFR (d746-750) and 10.1 to 50 nM on EGFR L858R.

Regarding `CC(Oc1cc(-c2cnn(C)c2)cc2ncnc(Nc3ccc4ncsc4c3F)c12)C(=O)N1CCOCC1` (stereo not drawn) [Example 281, 2-((4-((7-fluorobenzo[d]thiazol-6-yl)amino)-7-(1-methyl-1H-pyrazol-4-yl)quinazolin-5-yl)oxy)-1-morpholinopropan-1-one], the IC50 (in test [1]; at EGFR (d746-750); at EGFR L858R) was not above 10 nM throughout.

`C[C@H](CN(C)C)Oc1cc(N2CC[C@@H](C(C)(C)O)C2)cc2ncnc(Nc3ccc4ncsc4c3)c12` [Example 182, 2-((R)-1-(4-(benzo[d]thiazol-6-ylamino)-5-(((R)-1-(dimethylamino)propan-2-yl)oxy)quinazolin-7-yl)pyrrolidin-3-yl)propan-2-ol]: the IC50 (in test [1]; on EGFR (d746-750); at EGFR L858R) was not above 10 nM throughout.

In the case of `COCCN1CCC(Oc2cc(-c3cn(C)nc3OC)cc3ncnc(Nc4ccc5ncsc5c4)c23)CC1` [Example 305, N-(7-(3-methoxy-1-methyl-1H-pyrazol-4-yl)-5-((1-(2-methoxyethyl)piperidin-4-yl)oxy)quinazolin-4-yl)benzo[d]thiazol-6-amine], the IC50 (in test [1]; at EGFR (d746-750); on EGFR L858R) was not above 10 nM throughout.

On to `CC[C@@H](Oc1cc(-c2cnn(C)c2)cc2ncnc(Nc3ccc4ncsc4c3F)c12)C1COC1` (single isomer, unassigned) [Example 92], for which the IC50 (in test [1]; on EGFR (d746-750); on EGFR L858R) was not above 10 nM in each case.

In the case of `Cn1cc(-c2cc(O[C@@H]3CNC[C@H](F)C3)c3c(Nc4ccc5ncsc5c4)ncnc3c2)cn1` (racemic) [Example 329, cis-N-(5-(((3S,5R)-5-fluoropiperidin-3-yl)oxy)-7-(1-methyl-1H-pyrazol-4-yl)quinazolin-4-yl)benzo[d]thiazol-6-amine], the IC50 (in test [1]; on EGFR (d746-750); at EGFR L858R) was not above 10 nM throughout.

For the molecule `C[C@@H](O)[C@@H](C)Oc1cc(-c2cnn(C)c2)cc2ncnc(Nc3ccc4ncsc4c3)c12` [Example 184, (2R,3R)-3-((4-(benzo[d]thiazol-6-ylamino)-7-(1-methyl-1H-pyrazol-4-yl)quinazolin-5-yl)oxy)butan-2-ol], the IC50 (in test [1]; at EGFR (d746-750); on EGFR L858R) was not above 10 nM in each case.

Turning to `C[C@@H](Oc1cc(-c2cnn(C)c2)cc2ncnc(Nc3ccc4ncsc4c3F)c12)C1CCOCC1` (single isomer, unassigned) [Example 111], the IC50 (in test [1]; at EGFR (d746-750); at EGFR L858R) was not above 10 nM each time.

As to `CO[C@@H]1CCN(c2cc(O[C@H](C)C3COC3)c3c(Nc4ccc5ncsc5c4)ncnc3c2)C1` [Example 198, N-(7-((R)-3-methoxypyrrolidin-1-yl)-5-((R)-1-(oxetan-3-yl)ethoxy)quinazolin-4-yl)benzo[d]thiazol-6-amine], the IC50 (in test [1]; at EGFR (d746-750); at EGFR L858R) was not above 10 nM in each case.

`Cn1cc(-c2cc(O[C@H]3CCNC[C@@H]3F)c3c(Nc4ccc5ncsc5c4)ncnc3c2)cn1` (single isomer, unassigned) [Example 346]: the IC50 (in test [1]; at EGFR (d746-750); on EGFR L858R) was not above 10 nM in each case.

Consider `C[C@H](CO)Oc1cc(N2CCN(C)CC2)cc2ncnc(Nc3ccc4ncsc4c3F)c12` (single isomer, unassigned) [Example 296], for which the IC50 (in test [1]; on EGFR (d746-750); at EGFR L858R) was not above 10 nM in each case.

As to `COCCOc1cc(O[C@H](C)C2COC2)c2c(Nc3ccc4ncsc4c3F)ncnc2c1` (single isomer, unassigned) [Example 84], the IC50 (in test [1]; on EGFR (d746-750); at EGFR L858R) was not above 10 nM in each case.

As for `COc1cc(O[C@H](C)CN(C)C)c2c(Nc3ccc4ncsc4c3F)ncnc2c1` [Example 146, (R)-N-(5-((1-(dimethylamino)propan-2-yl)oxy)-7-methoxyquinazolin-4-yl)-7-fluorobenzo[d]thiazol-6-amine], the IC50 in test [1] is 10.1 to 50 nM; at EGFR (d746-750) it was not above 10 nM; on EGFR L858R it was 10.1 to 50 nM.

In the case of `CO[C@@H]1CN(C)CC[C@H]1Oc1cc(-c2cnn(C)c2)cc2ncnc(Nc3ccc4ncsc4c3)c12` (single isomer, unassigned) [Example A43], the IC50 is 10.1 to 50 nM in test [1], not above 10 nM at EGFR (d746-750) and not above 10 nM at EGFR L858R.

Consider `COc1cc2ncnc(Nc3ccc4ncsc4c3)c2cc1-c1cnn(CC2CCN(C)CC2)c1` [Example 242, N-(7-methoxy-6-(1-((1-methylpiperidin-4-yl)methyl)-1H-pyrazol-4-yl)quinazolin-4-yl)benzo[d]thiazol-6-amine], for which the IC50 in test [1] is 10.1 to 50 nM; on EGFR (d746-750), not above 10 nM; on EGFR L858R, not above 10 nM.

As to `CN1CC[C@H](O)[C@@H](Oc2cc(-c3cnn(C)c3)cc3ncnc(Nc4ccc5ncsc5c4)c23)C1` (single isomer, unassigned) [Example A33], the IC50 (in test [1]; at EGFR (d746-750); at EGFR L858R) was not above 10 nM throughout.

Turning to `C[C@@H](Oc1cc(N2CCN(C)[C@@H]3C[C@@H]32)cc2ncnc(Nc3ccc4ncsc4c3)c12)C1COC1` (single isomer, unassigned) [Example 299], the IC50 in test [1] was 10.1 to 50 nM; at EGFR (d746-750), not above 10 nM; on EGFR L858R, 10.1 to 50 nM.

As for `C[C@@H]1CN(c2cc(O[C@H](C)C3COC3)c3c(Nc4ccc5ncsc5c4F)ncnc3c2)CCN1C` (single isomer, unassigned) [Example 103], the IC50 is not above 10 nM in test [1], not above 10 nM at EGFR (d746-750) and 10.1 to 50 nM on EGFR L858R.

In the case of `Cn1cc(-c2cc(OC(CO)CO)c3c(Nc4ccc5ncsc5c4)ncnc3c2)cn1` [Example 29, 2-((4-(benzo[d]thiazol-6-ylamino)-7-(1-methyl-1H-pyrazol-4-yl)quinazolin-5-yl)oxy)propane-1,3-diol], the IC50 in test [1] was 10.1 to 50 nM; on EGFR (d746-750) it was not above 10 nM; on EGFR L858R, not above 10 nM.

For the molecule `COCCN1CCC(Oc2cc(-c3cnn(C)c3)cc3ncnc(Nc4ccc5ncsc5c4F)c23)CC1` [Example 316, 7-fluoro-N-(5-((1-(2-methoxyethyl)piperidin-4-yl)oxy)-7-(1-methyl-1H-pyrazol-4-yl)quinazolin-4-yl)benzo[d]thiazol-6-amine], the IC50 in test [1] is 10.1 to 50 nM; on EGFR (d746-750), not above 10 nM; at EGFR L858R it was 10.1 to 50 nM.

Regarding `C[C@@H](Oc1cc(N2CCN(C)CC2)cc2ncnc(Nc3ccc4ncsc4c3)c12)C1COC1` (single isomer, unassigned) [Example 96], the results for the IC50 (in test [1]; on EGFR (d746-750); at EGFR L858R) were 10.1 to 50 nM, not above 10 nM and not above 10 nM, respectively.

In the case of `CN1CCC(C)(COc2cc(-c3cnn(C)c3)cc3ncnc(Nc4ccc5ncsc5c4)c23)C1=O` (stereo not drawn) [Example 54, 3-(((4-(benzo[d]thiazol-6-ylamino)-7-(1-methyl-1H-pyrazol-4-yl)quinazolin-5-yl)oxy)methyl)-1,3-dimethylpyrrolidin-2-one], the IC50 was 10.1 to 50 nM in test [1], not above 10 nM at EGFR (d746-750) and not above 10 nM on EGFR L858R.
